# Source: US12178791B2, “Haloallylamine sulfone derivative inhibitors of lysyl oxidases and uses thereof” (Syntara Limited, priority 2018, dated 2024)
# Counter-ions that a name gives are not always drawn. Like-named read-outs stand apart in the source and are kept apart here.
# Tests used:
# LOXL2 = LOXL2 (Homo sapiens (Human), UniProt Q9Y4K0); assay: Jump dilution experiment, sustained inhibition of LOXL2; assay type: biochemical; conditions: jump dilution after 40 min at 37 °C with 10× or 30× IC50; vs non-inhibited controls;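 also: 30× IC50 used only where needed so inhibitor exceeds enzyme concentration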
# LOXL2, sequence (Q9Y4K0 26-774): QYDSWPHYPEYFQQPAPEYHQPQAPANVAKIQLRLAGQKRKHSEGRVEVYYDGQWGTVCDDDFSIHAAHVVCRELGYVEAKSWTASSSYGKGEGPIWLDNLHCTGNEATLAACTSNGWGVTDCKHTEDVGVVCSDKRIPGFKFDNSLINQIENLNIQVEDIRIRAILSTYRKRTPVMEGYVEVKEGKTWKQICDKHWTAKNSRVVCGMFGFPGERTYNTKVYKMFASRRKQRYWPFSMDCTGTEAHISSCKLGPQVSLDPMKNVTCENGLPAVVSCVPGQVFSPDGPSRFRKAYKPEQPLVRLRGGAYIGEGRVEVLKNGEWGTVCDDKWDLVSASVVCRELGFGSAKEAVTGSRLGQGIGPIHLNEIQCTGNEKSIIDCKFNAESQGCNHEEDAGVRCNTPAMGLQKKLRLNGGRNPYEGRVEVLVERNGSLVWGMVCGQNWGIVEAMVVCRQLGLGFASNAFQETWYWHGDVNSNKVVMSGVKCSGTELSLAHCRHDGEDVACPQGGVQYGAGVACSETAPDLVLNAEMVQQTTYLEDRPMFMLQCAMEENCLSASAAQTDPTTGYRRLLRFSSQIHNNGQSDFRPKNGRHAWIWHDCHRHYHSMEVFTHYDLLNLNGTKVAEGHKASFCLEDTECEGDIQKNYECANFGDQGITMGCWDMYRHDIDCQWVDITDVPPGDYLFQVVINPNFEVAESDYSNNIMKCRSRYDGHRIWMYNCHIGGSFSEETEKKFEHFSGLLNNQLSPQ
# Description: Jump Dilution experiment: The assay was developed using a 96 well format and the starting enzyme concentration was set 100 times higher than for the inhibition studies. […] After the incubation, the mixture was diluted 50× in assay buffer, followed by a further 2× dilution in Amplex Red-horseradish peroxidase-putrescine reaction mix (same as per the inhibition studies) prior to the fluorescent measurement. Results were expressed in % recovery of the signal after a specified time by comparison with non-inhibited controls.
# [1] = In vivo pharmacokinetics, plasma concentration after p.o. dosing; parameters: species or system Wistar rats; conditions: for concentration at 0.5 h / concentration at 1 h / concentration at 2 h / concentration at 4 h / concentration at 8 h / concentration at 0.25 h / concentration at 3 h / concentration at 5 h: male, Wistar, plasma, po, rat; for concentration at 0.5 h: 0.50 hours; for plasma concentrations relative to the IC50: rat plasma, after 8 hours
# Description: Test compounds (10 mg/kg and 30 mg/kg in PBS, p.o. n=3) were administered to 7-9 weeks old male Wistar rats. Test compound blood samples were collected at time points from 0.25 h-8.00 h (Compound 1); 0.5 h-8.00 h (Compound 33) post administration, from tail vein.
# Sample preparation: 20 μL of calibration samples (in single), QC samples (in duplicate) and rat plasma samples were mixed with 60 μL acetonitrile containing internal standard (IS; 200 ng/mL of tolbutamide and 50 ng/mL propanolol) in Eppendorf tubes. The mixture was vortexed for 1 min, then centrifuged for 10 min, 50 μL of supernatant was transferred to a 96 well-plate with 100 μL water. After shaking for 10 min, 10 μL was injected into the liquid chromatography mass spectrometry (LC-MS/MS) system for analysis.
# HPLC: Agilent 1100; Mass Spectrometer: API 4000
# Column: Phenomenex Gemini C18 5 μm 50×4.6 mm
# Mobile phase: 0.1% formic acid in water, 0.1% formic acid in acetonitrile
# HPLC: Shimadzu LC30AD; Mass Spectrometer: API 4000
# For dilution samples: 10 μL sample was added to 90 μL blank rat plasma. The mixture was precipitated with 300 μL acetonitrile containing IS in Eppendorf tubes. The mixture was vortexed for 1 min, then centrifuged for 10 min, 50 μL supernatant was transferred to a 96 well-plate with 100 μL water. After shaking for 10 min, 10 μL was injected into the LC-MS/MS system for analysis. Determined, mean plasma concentrations for Compounds 1 and 33 are shown in Table 5 and Table 6 respectively.
# [2] = target: Human recombinant SSAO/VAP-1 (Homo sapiens (Human), UniProt Q16853); assay: Inhibition of human recombinant SSAO/VAP-1; assay type: biochemical
# Human recombinant SSAO/VAP-1, sequence (Q16853 34-763): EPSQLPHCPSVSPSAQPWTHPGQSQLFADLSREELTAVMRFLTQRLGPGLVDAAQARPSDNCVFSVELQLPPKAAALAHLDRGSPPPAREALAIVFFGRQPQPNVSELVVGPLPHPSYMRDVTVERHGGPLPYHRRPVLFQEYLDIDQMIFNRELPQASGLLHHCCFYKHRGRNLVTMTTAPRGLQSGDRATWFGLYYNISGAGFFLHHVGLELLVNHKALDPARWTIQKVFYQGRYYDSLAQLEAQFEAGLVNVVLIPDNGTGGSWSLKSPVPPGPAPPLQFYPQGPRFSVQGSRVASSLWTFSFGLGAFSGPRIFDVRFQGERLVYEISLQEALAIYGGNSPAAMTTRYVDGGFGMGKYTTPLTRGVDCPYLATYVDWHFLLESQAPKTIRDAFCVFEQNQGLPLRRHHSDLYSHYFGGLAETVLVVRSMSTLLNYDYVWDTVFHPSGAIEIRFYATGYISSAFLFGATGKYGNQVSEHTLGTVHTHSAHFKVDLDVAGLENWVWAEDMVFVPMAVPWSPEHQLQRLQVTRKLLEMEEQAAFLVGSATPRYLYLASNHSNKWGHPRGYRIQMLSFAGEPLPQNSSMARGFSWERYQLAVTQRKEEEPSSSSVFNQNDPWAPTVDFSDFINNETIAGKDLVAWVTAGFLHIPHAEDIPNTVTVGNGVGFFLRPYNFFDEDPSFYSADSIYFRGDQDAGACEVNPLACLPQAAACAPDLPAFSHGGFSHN
# In short: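 Purified enzyme (residues 34-763, expressed in CHO Lec8 cells; 0.25 μg/mL in 0.1 M sodium phosphate pH 7.4) was preincubated with compound 30 min at 37 °C. An added mix held 600 μM benzylamine, 120 μM Amplex Red and 1.5 U/mL HRP. Fluorescence (ex 565/em 590 nm) was read every 2.5 min for 30 min at 37 °C, and IC50 was derived from kinetic slopes over 4-11-point curves.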
# Bovine LOX = Bovine LOX (Bos taurus (Bovine), UniProt P33072); assay: LOX inhibition, Amplex Red oxidation assay; assay type: biochemical; conditions: 30 min preincubation at 37 °C, putrescine substrate
# Bovine LOX, sequence (P33072 170-418): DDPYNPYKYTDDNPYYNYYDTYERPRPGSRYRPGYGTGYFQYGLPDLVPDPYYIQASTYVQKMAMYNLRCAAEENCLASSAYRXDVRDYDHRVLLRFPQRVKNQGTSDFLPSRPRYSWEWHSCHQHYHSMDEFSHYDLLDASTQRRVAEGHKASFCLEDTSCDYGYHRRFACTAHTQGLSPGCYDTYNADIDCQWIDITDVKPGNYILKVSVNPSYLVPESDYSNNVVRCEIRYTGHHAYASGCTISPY
# In short: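 Bovine LOX in 1.2 M urea, 50 mM sodium borate pH 8.2, with 1 μM mofegiline and 0.5 mM pargyline unless recombinant or purified. The added mix held putrescine at twice KM (20 mM for LOX), 120 μM Amplex Red and 1.5 U/mL HRP.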
# [3] = 30 min preincubation at 37 °C, benzylamine 600 μM, read-out: SSAO/VAP-1 Activity IC50
Compound,LOXL2 - Recovery of activity. (%) (LOXL2),concentration at 0.5 h ([1]; 10 mg/kg p.o.),concentration at 1 h ([1]; 10 mg/kg p.o.),concentration at 2 h ([1]; 10 mg/kg p.o.),concentration at 8 h ([1]; 10 mg/kg p.o.),concentration at 0.5 h ([1]; 30 mg/kg p.o.),concentration at 1 h ([1]; 30 mg/kg p.o.),concentration at 2 h ([1]; 30 mg/kg p.o.),concentration at 8 h ([1]; 30 mg/kg p.o.),plasma concentrations relative to the IC50 [1],"IC50 [2, 3]",IC50 (Bovine LOX),other results
"NC/C=C(\F)CS(=O)(=O)c1cccc2cccnc12 [Compound 33, (Z)-3-fluoro-4-(quinolin-8-ylsulfonyl)but-2-en-1-amine dihydrochloride]",6.9%,771 ng/mL,548 ng/mL,246 ng/mL,8.4 ng/mL,3710 ng/mL,3010 ng/mL,1470 ng/mL,13.7 ng/mL,far below the IC50,> 10 µM,< 10 µM,concentration at 4 h ([1]; 10 mg/kg p.o.): 56.4 ng/mL; concentration at 4 h ([1]; 30 mg/kg p.o.): 185 ng/mL
"NC/C=C(\F)CS(=O)(=O)c1ccccc1 [Compound 1, (Z)-3-fluoro-4-(phenylsulfonyl)but-2-en-1-amine hydrochloride]",9.5%,736 ng/mL,450 ng/mL,134 ng/mL,6.4 ng/mL,2090 ng/mL,1200 ng/mL,657 ng/mL,13.5 ng/mL,far below the IC50,> 30 µM,< 10 µM,"concentration at 0.25 h ([1]; 10 mg/kg p.o.): 379 ng/mL; concentration at 3 h ([1]; 10 mg/kg p.o.): 66.4 ng/mL; concentration at 5 h ([1]; 10 mg/kg p.o.): 27.2 ng/mL; concentration at 0.25 h ([1]; 30 mg/kg p.o.): 1060 ng/mL; concentration at 3 h ([1]; 30 mg/kg p.o.): 238 ng/mL; concentration at 5 h ([1]; 30 mg/kg p.o.): 41.3 ng/mL; IC50 ([2]; second Table 6 (Example 38), read-out: Recombinant human SSAO (rhSSAO) inhibition (IC50)): > 100 µM"
